Assay results taken from patent US10590140B2, “Tetrahydropyrimidodiazepine and dihydropyridodiazepine compounds for treating pain and pain related conditions” (ESTEVE PHARMACEUTICALS, S.A., priority 2016, dated 2020).

Target: human α2δ-1 subunit of Cav2.2 calcium channel (Homo sapiens (Human), UniProt P54289)
Assay: Binding assay to human α2δ-1 subunit of Cav2.2 calcium channel ([3H]-Gabapentin)
Settings: binding to α2δ-1, [3H]-Gabapentin; read-out: Ki (nM) α2δ-1
In short: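 Radioactivity on dried GF/C filters quantified by scintillation after filtration and three cold Tris-HCl (pH 7.4) washes. Incubation ran 60 min at 27° C with [3H]-gabapentin; 10 μM pregabalin gave nonspecific binding.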

Sequence of human α2δ-1 subunit of Cav2.2 calcium channel (P54289 25-1103): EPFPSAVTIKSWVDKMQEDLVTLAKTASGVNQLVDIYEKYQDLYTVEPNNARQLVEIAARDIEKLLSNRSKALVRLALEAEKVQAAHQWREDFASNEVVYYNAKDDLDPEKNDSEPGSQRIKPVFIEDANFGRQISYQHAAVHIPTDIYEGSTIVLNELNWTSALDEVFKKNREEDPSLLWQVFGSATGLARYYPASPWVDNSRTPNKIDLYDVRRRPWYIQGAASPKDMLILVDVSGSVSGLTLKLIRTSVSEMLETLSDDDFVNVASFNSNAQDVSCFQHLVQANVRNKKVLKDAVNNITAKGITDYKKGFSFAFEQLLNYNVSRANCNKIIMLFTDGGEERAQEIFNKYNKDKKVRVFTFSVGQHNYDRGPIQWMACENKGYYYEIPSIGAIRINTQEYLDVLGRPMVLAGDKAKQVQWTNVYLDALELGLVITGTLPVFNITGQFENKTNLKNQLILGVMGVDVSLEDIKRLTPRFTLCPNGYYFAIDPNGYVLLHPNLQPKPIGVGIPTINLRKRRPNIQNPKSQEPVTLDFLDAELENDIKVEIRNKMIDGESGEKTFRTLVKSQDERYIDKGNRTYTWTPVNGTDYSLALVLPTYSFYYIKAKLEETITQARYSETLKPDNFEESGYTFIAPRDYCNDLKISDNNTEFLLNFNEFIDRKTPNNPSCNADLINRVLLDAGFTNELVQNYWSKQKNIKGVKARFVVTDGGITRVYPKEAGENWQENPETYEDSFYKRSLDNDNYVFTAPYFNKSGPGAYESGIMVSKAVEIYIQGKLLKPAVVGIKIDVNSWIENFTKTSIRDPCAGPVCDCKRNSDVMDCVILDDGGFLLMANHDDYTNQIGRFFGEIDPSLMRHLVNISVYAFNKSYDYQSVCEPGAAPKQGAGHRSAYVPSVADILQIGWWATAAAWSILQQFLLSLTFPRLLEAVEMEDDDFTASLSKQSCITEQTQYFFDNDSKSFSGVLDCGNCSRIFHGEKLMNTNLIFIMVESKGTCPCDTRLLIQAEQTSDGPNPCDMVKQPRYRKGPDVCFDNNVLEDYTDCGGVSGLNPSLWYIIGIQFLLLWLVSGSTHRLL

`CNCCC(OCc1ccccc1N1CCN(C)c2nc(SC)ncc2C1=O)c1ccccc1` (centres unmarked) [Example 318, 9-methyl-6-(2-((3-(methylamino)-1-phenylpropoxy)methyl)phenyl)-2-(methylthio)-6,7,8,9-tetrahydro-5H-pyrimido[4,5-e][1,4]diazepin-5-one] and `CNCC(OCc1ccccc1N1CCN(C)c2nc(SC)ncc2C1=O)c1ccccc1` (centres unmarked) [Example 320, 9-methyl-6-(2-((2-(methylamino)-1-phenylethoxy)methyl)phenyl)-2-(methylthio)-6,7,8,9-tetrahydro-5H-pyrimido[4,5-e][1,4]diazepin-5-one] cannot be ordered by Ki: greater than 3000 nM for the first, greater than 3000 nM for the second.

`CSc1ncc2c(n1)N(C)CCN(c1cccc(C#N)c1)C2=O` [Example 33, 3-(9-methyl-2-(methylthio)-5-oxo-5,7,8,9-tetrahydro-6H-pyrimido[4,5-e][1,4]diazepin-6-yl)benzonitrile] and `COc1cccc(N2CCN(C)c3nc(SC)ncc3C2=O)c1` [Example 32, 6-(3-methoxyphenyl)-9-methyl-2-(methylthio)-6,7,8,9-tetrahydro-5H-pyrimido[4,5-e][1,4]diazepin-5-one] cannot be ordered by Ki: greater than 3000 nM for the first, greater than 3000 nM for the second.

`CCNc1cc2c(cn1)C(=O)N(c1cccc(COC(CCN(C)C(=O)OCC[Si](C)(C)C)c3cccs3)c1)CCN2C` (centres unmarked) [Example 60, 2-(trimethyl-silyl)ethyl (3-((3-(8-(ethylamino)-1-methyl-5-oxo-1,2,3,5-tetrahydro-4H-pyrido[4,3-e] [1,4]diazepin-4-yl)benzyl)oxy)-3-(thiophen-2-yl)propyl) (methyl) carbamate] and `CSc1ncc2c(n1)N(C)CCN(c1cccc(OC(CCN(C)C(=O)OC(C)(C)C)c3cccs3)c1)C2=O` (centres unmarked) [Example 12, tert-butyl methyl(3-(3-(9-methyl-2-(methylthio)-5-oxo-5,7,8,9-tetrahydro-6H-pyrimido[4,5-e][1,4]diazepin-6-yl)phenoxy)-3-(thiophen-2-yl)propyl) carbamate] cannot be ordered by Ki: greater than 3000 nM for the first, greater than 3000 nM for the second.

`Cc1nnc(-c2cccc(N3CCN(C)c4nc(NCC(C)C)ncc4C3=O)c2)o1` [Example 98, 2-(isobutylamino)-9-methyl-6-(3-(5-methyl-1,3,4-oxadiazol-2-yl)phenyl)-6,7,8,9-tetrahydro-5H-pyrimido[4,5-e][1,4]diazepin-5-one] and `Cc1nnc(-c2cccc(N3CCN(C)c4nc(NCc5ccccc5)ncc4C3=O)c2)o1` [Example 102, 2-(benzylamino)-9-methyl-6-(3-(5-methyl-1,3,4-oxadiazol-2-yl)phenyl)-6,7,8,9-tetrahydro-5H-pyrimido[4,5-e][1,4]diazepin-5-one] cannot be ordered by Ki: greater than 3000 nM for the first, greater than 3000 nM for the second.

First: CNCCC(OCc1cccc(N2CCN(C)c3ccncc3C2=O)c1)c1ccccc1 (centres unmarked) [Example 317, 1-methyl-4-(3-((3-(methylamino)-1-phenylpropoxy)methyl)phenyl)-1,2,3,4-tetrahydro-5H-pyrido[4,3-e][1,4]diazepin-5-one]
Second: CN(CC[C@@H](OCc1cccc(N2CCN(C)c3nc(O)ncc3C2=O)c1)c1ccccc1)C(=O)OC(C)(C)C [Example 140, tert-Butyl (R)-(3-((3-(2-hydroxy-9-methyl-5-oxo-5,7,8,9-tetrahydro-6H-pyrimido[4,5-e][1,4]diazepin-6-yl)benzyl)oxy)-3-phenylpropyl)(methyl)carbamate]
The Ki of the first is lower: 500 to 3000 nM for the first, greater than 3000 nM for the second. The first binds more tightly here.

Compared with `CCNc1ncc2c(n1)N(C)CCN(c1cccc(OC(CN(C)CCc3ccccc3)C(C)C)c1)C2=O` (centres unmarked) [Example 268, 2-(ethylamino)-9-methyl-6-(3-((3-methyl-1-(methyl(phenethyl)amino)butan-2-yl)oxy)phenyl)-6,7,8,9-tetrahydro-5H-pyrimido[4,5-e][1,4]diazepin-5-one], `CCNc1ncc2c(n1)N(C)CCN(c1cccc(CCN(C)Cc3ccccc3)c1)C2=O` [Example 269, 6-(3-(2-(benzyl(methyl)amino)ethyl)phenyl)-2-(ethylamino)-9-methyl-6,7,8,9-tetrahydro-5H-pyrimido[4,5-e][1,4]diazepin-5-one] is lower in Ki: 500 to 3000 nM for the first, 100 to 500 nM for the second.

`CCNc1ncc2c(n1)N(C)CCN(c1cccc(Cn3cc(CN(C)C(=O)OC(C)(C)C)nn3)c1)C2=O` [Example 121, tert-butyl ((1-(3-(2-(ethylamino)-9-methyl-5-oxo-5,7,8,9-tetrahydro-6H-pyrimido[4,5-e][1,4]diazepin-6-yl)benzyl)-1H-1,2,3-triazol-4-yl)methyl)(methyl) carbamate] and `CCNc1ncc2c(n1)N(C)CCN(c1cccc(-c3nnc(CN(C)C(=O)OC(C)(C)C)o3)c1)C2=O` [Example 124, tert-butyl ((5-(3-(2-(ethylamino)-9-methyl-5-oxo-5,7,8,9-tetrahydro-6H-pyrimido[4,5-e][1,4]diazepin-6-yl)phenyl)-1,3,4-oxadiazol-2-yl)methyl)(methyl) carbamate] cannot be ordered by Ki: greater than 3000 nM for the first, greater than 3000 nM for the second.

`CNCCC(OCc1ccccc1CN1CCN(C)c2nc(SC)ncc2C1=O)c1ccccc1` (centres unmarked) [Example 365, 9-methyl-6-(2-((3-(methylamino)-1-phenylpropoxy)methyl)benzyl)-2-(methylthio)-6,7,8,9-tetrahydro-5H-pyrimido[4,5-e][1,4]diazepin-5-one] and `CNCCC(Oc1ccccc1CN1CCN(C)c2ncncc2C1=O)c1ccccc1` (centres unmarked) [Example 431, 9-methyl-6-(2-(3-(methylamino)-1-phenylpropoxy)benzyl)-6,7,8,9-tetrahydro-5H-pyrimido[4,5-e][1,4]diazepin-5-one] cannot be ordered by Ki: greater than 3000 nM for the first, greater than 3000 nM for the second.

`CSc1ncc2c(n1)N(C)CCN(c1cccc(OC(C)CN(C)C(=O)OC(C)(C)C)c1)C2=O` (centres unmarked) [Example 6, tert-butyl methyl(2-(3-(9-methyl-2-(methylthio)-5-oxo-5,7,8,9-tetrahydro-6H-pyrimido[4,5-e][1,4]diazepin-6-yl)phenoxy)propyl) carbamate] and `CSc1ncc2c(n1)N(C)CCN(c1cccc(COC(CCN(C)C(=O)OC(C)(C)C)C(C)C)c1)C2=O` (centres unmarked) [Example 49, tert-butyl methyl (4-methyl-3-((3-(9-methyl-2-(methylthio)-5-oxo-5,7,8,9-tetrahydro-6H-pyrimido[4,5-e][1,4]diazepin-6-yl)benzyl)oxy)pentyl) carbamate] cannot be ordered by Ki: greater than 3000 nM for the first, greater than 3000 nM for the second.

First: CNCC[C@H](Oc1ccc(CN2CCN(C)c3c(Cl)cncc3C2=O)cc1)c1cccs1 [Example 400, (S)-9-chloro-1-methyl-4-(4-(3-(methylamino)-1-(thiophen-2-yl)propoxy)benzyl)-1,2,3,4-tetrahydro-5H-pyrido[4,3-e][1,4]diazepin-5-one]
Second: CCN1CCN(Cc2ccc(O[C@@H](CCNC)c3cccs3)cc2)C(=O)c2cncnc21 [Example 398, (S)-9-ethyl-6-(4-(3-(methylamino)-1-(thiophen-2-yl)propoxy)benzyl)-6,7,8,9-tetrahydro-5H-pyrimido[4,5-e][1,4]diazepin-5-one]
The Ki of the first is higher: 500 to 3000 nM for the first, 100 to 500 nM for the second. The second binds more tightly here.

First: CCNc1ncc2c(n1)N(C)CCN(c1cccc(OC(CCN(CCF)C(=O)OC(C)(C)C)c3cccs3)c1)C2=O (centres unmarked) [Example 134, tert-butyl (3-(3-(2-(ethylamino)-9-methyl-5-oxo-5,7,8,9-tetrahydro-6H-pyrimido[4,5-e][1,4]diazepin-6-yl)phenoxy)-3-(thiophen-2-yl)propyl)(2-fluoroethyl)carbamate]
Second: CCNc1ncc2c(n1)N(C)CCN(c1cccc(OC(CCNCCF)c3cccs3)c1)C2=O (centres unmarked) [Example 220, 2-(ethylamino)-6-(3-(3-((2-fluoroethyl)amino)-1-(thiophen-2-yl)propoxy)phenyl)-9-methyl-6,7,8,9-tetrahydro-5H-pyrimido[4,5-e][1,4]diazepin-5-one]
The Ki of the first is higher: greater than 3000 nM for the first, 500 to 3000 nM for the second.

`CCNc1ncc2c(n1)N(C)CCN(c1cccc(-n3cc(C(OCC)OCC)nn3)c1)C2=O` [Example 119, 6-(3-(4-(diethoxymethyl)-1H-1,2,3-triazol-1-yl)phenyl)-2-(ethylamino)-9-methyl-6,7,8,9-tetrahydro-5H-pyrimido[4,5-e][1,4]diazepin-5-one] and `CCOC(OCC)c1cn(-c2cccc(N3CCN(C)c4nc(SC)ncc4C3=O)c2)nn1` [Example 42, 6-(3-(4-(diethoxymethyl)-1H-1,2,3-triazol-1-yl)phenyl)-9-methyl-2-(methylthio)-6,7,8,9-tetrahydro-5H-pyrimido[4,5-e][1,4]diazepin-5-one] cannot be ordered by Ki: greater than 3000 nM for the first, greater than 3000 nM for the second.

`CSc1ncc2c(n1)N(C)CCN(c1cccc(CO[C@@H](CCN(C)C(=O)OC(C)(C)C)c3ccccc3)c1)C2=O` [Example 11, tert-butyl (S)-methyl(3-((3-(9-methyl-2-(methylthio)-5-oxo-5,7,8,9-tetrahydro-6H-pyrimido[4,5-e][1,4]diazepin-6-yl)benzyl)oxy)-3-phenylpropyl) carbamate] and `CCNc1ncc2c(n1)N(C)CCN(c1cccc(OCCCN(C)C(=O)OC(C)(C)C)c1)C2=O` [Example 88, tert-butyl (3-(3-(2-(ethylamino)-9-methyl-5-oxo-5,7,8,9-tetrahydro-6H-pyrimido[4,5-e][1,4]diazepin-6-yl)phenoxy)propyl) (methyl)carbamate] cannot be ordered by Ki: greater than 3000 nM for the first, greater than 3000 nM for the second.

`CCNc1ncc2c(n1)N(C)CCN(c1cccc(Cn3cc(CNC)nn3)c1)C2=O` [Example 184, 2-(ethylamino)-9-methyl-6-(3-((4-((methylamino)methyl)-1H-1,2,3-triazol-1-yl)methyl)phenyl)-6,7,8,9-tetrahydro-5H-pyrimido[4,5-e][1,4]diazepin-5-one] and `CCNc1cc2c(cn1)C(=O)N(c1cccc(-c3nnc(C)n3CC)c1)CCN2C` [Example 55, 4-(3-(4-ethyl-5-methyl-4H-1,2,4-triazol-3-yl)phenyl)-8-(ethylamino)-1-methyl-1,2,3,4-tetrahydro-5H-pyrido[4,3-e][1,4]diazepin-5-one] fall in the same range of Ki: 500 to 3000 nM for the first, 500 to 3000 nM for the second.

`Cc1nnc(-c2cccc(N3CCN(C)c4nc(N(C)Cc5ccccn5)ncc4C3=O)c2)o1` [Example 106, 9-methyl-2-(methyl (pyridin-2-ylmethyl)amino)-6-(3-(5-methyl-1,3,4-oxadiazol-2-yl)phenyl)-6,7,8,9-tetrahydro-5H-pyrimido[4,5-e][1,4]diazepin-5-one] showed a Ki greater than 3000 nM.
